In one assay the test system is C3H/HeN mice. The assay can be described thus: Telogen Conversion Assay (topical hair growth). Type of assay: in vivo. Particulars: for Hair Growth at LDO (% Animals): animals with hair growth score of 1 or greater; for Hair Growth in 50% of Animals: day when 50% or greater had score of 1 or greater. The text has this: The Telogen Conversion Assay measures the potential of a compound (hereinafter referred to as the “test compound”) to convert mice in the resting stage of the hair growth cycle (“telogen”) to the growth stage of the hair growth cycle (“anagen”). Without intending to be limited by theory, there are three principal phases of the hair growth cycle: anagen, catagen and telogen. The telogen period in C3H/HeN mice lasts from approximately 40 days of age until about 75 days of age, when hair growth is synchronized. It is believed that after 75 days of age, hair growth is no longer synchronized. For example, about 40 day-old mice with dark fur (brown or black) may be used in hair growth experiments; melanogenesis occurs in these animals along with hair (fur) growth and the topical application of hair growth inducers may be evaluated in these animals.
The Telogen Conversion Assay described below is used to screen test compounds for potential hair growth by measuring melanogenesis:
Objectives: To evaluate and compare the effect of test compounds applied topically on C3H/HeN mice for hair growth.
Animals: Female C3H/HeN mice, six and a half weeks of age.
Route and Duration of Treatment: Topical dosing with test compounds on mice is scheduled once or twice daily for five (5) consecutive days for one week to four weeks. Topical dosing begins on Day 0 by applying test compound or vehicle in volumes of 20 μl which keeps the solubilized test compound to a prescribed area of approximately one (1) square centimeter (1 cm^2) in the center of the clipped lower back of each mouse.
Study Design: Only mice with pink skin or in the telogen phase of the hair growth cycle are selected for inclusion in the study. On Friday, before the experiment starts, the mice are weighed and then anesthetized with isoflurane in a mouse chamber. The hair over the lower dorsal area is clipped with a Wahl clipper using a #40 blade. Care is taken to avoid abrading the skin surface. On the Monday (Day 0) following hair clipping, the mice are again anesthetized with isoflurane and photographed with a digital camera. After digital photographs are taken, the mice receive 20 μl of the respective test compounds applied with an automated pipette to the clipped area between the hind legs. The test compound for each treatment group is evenly spread with the pipette tip to an area approximately 1 square centimeter (1 cm^2), and applied to the same site on subsequent dosing days. All topical treatments are administered as described in the Route and Duration of Treatment Section.
Observations of the test sites are made three (3) times a week on Monday, Wednesday, and Friday, with observations beginning immediately after the first week of treatment and looking for changes in skin pigment, hair growth, and signs of irritation such as scaling, peeling, scabbing and erythema. Digital photographs are taken on Days 0, 10, 15, 31 and 35 (end of the study) for the dosing groups. Body weights of mice are taken on the first and last days of observation for each test group.
The scoring system for hair growth is described below:
0=No hair growth/pigment change (pink skin);
1=Gray/dark skin color (no visible hair growth);
2=Sparse/diffuse terminal hair growth;
3=dense, normal hair growth.
ph 2=peripheral hair growth with a score of 2
ph 3=peripheral hair growth with a score of 3
ldsh=long, diffuse/scattered hair growth in the dosing site
Scaling, peeling, scabbing, or erythema are scored as present (+) and absent (−). Any other local (e.g. test compound precipitation) or systemic abnormalities and aberrant hair growth are described on raw data scoring sheet.
Table 1 is a summary table of the results of the evaluation of five different test compounds in the Telogen Conversion Assay described above. Animals were observed and scored for hair growth using the scoring system for hair growth described above.

A further assay has as its system AGA mouse. Particulars: topical, model for androgen dependent hair loss; cited from earlier work.
A further assay has as its system mice and rats. Particulars: topical; cited from earlier work.
Setting [1] is: Experiment 1, 0.001% topical, 1 wk, LDO day 30.
The mark [2] stands for this setting: Experiment 1, 0.01% topical, 1 wk, LDO day 30.
Where [3] appears, read: Experiment 1, 0.1% topical, 1 wk, LDO day 30.
The mark [4] stands for this setting: Experiment 1, 0.3% topical, 1 wk, LDO day 30.
[5] abbreviates: Experiment 2, 0.001% topical, 1 wk, LDO day 35.
Setting [6] is: Experiment 2, 0.01% topical, 1 wk, LDO day 35.
Setting [7] is: Experiment 2, 0.1% topical, 1 wk, LDO day 35.
[8] abbreviates: Experiment 2, 0.3% topical, 1 wk, LDO day 35.
Setting [9] is: Experiment 3, 0.1% topical, 1 wk, LDO day 35.
The mark [10] stands for this setting: Experiment 3, 0.1% topical, 2 wks, LDO day 35.

Some results are limits rather than exact numbers.

Regarding `O=C(NC1CCCCC1)c1cc(Oc2c(Cl)cc(-n3ncc(=O)[nH]c3=O)cc2Cl)ccc1O` [Cpd #1, N-Cyclohexyl-5-[2,6-dichloro-4-(3,5-dioxo-4,5-dihydro-3H-[1,2,4]triazin-2-yl)-phenoxy]-2-hydroxy-benzamide], the “Hair Growth at LDO (% Animals)” value with C3H/HeN mice (setting [1]) worked out at 22%; with C3H/HeN mice (setting [2]), 75%; in the assay with C3H/HeN mice (setting [3]) it was 100%; in the assay on C3H/HeN mice (setting [4]), 100%; in the assay on C3H/HeN mice (setting [5]), 50%; with C3H/HeN mice (setting [6]), 100%. Further, the “Hair Growth at LDO (% Animals)” value in the assay with C3H/HeN mice (setting [7]), in the assay on C3H/HeN mice (setting [8]), in the assay with C3H/HeN mice (setting [9]) and in the assay with C3H/HeN mice (setting [10]) was 100% throughout. The “Hair Growth in 50% of Animals” value in the assay on C3H/HeN mice (setting [1]) is more than 30 days; in the assay with C3H/HeN mice (setting [2]), 14 days; in the assay on C3H/HeN mice (setting [3]), 7 days; in the assay on C3H/HeN mice (setting [4]), 9 days; in the assay on C3H/HeN mice (setting [5]), 18 days; in the assay with C3H/HeN mice (setting [6]), 14 days. In addition, the “Hair Growth in 50% of Animals” value in the assay on C3H/HeN mice (setting [7]) is 7 days; in the assay on C3H/HeN mice (setting [8]), 9 days; with C3H/HeN mice (setting [9]), 7 days; in the assay on C3H/HeN mice (setting [10]), 7 days.

As to `O=C(c1cc(Oc2c(Cl)cc(-n3ncc(=O)[nH]c3=O)cc2Cl)ccc1O)N1CCc2ccccc2C1` [Cpd #2, 2-{3,5-Dichloro-4-[3-(3,4-dihydro-1H-isoquinoline-2-carbonyl)-4-hydroxy-phenoxy]-phenyl}-2H-[1,2,4]triazine-3,5-dione], in the assay with C3H/HeN mice (setting [10]), the “Hair Growth at LDO (% Animals)” value is recorded as 100% and the “Hair Growth in 50% of Animals” value was 11 days.

On to `Cc1cc(NC(=O)C(=O)O)cc(C)c1Oc1ccc(O)c2c1CCC2` [Cpd #3, N-[4-(7-hydroxy-indan-4-yloxy)-3,5-dimethyl-phenyl]-oxamic acid], for which, in the assay on C3H/HeN mice (setting [10]), the “Hair Growth at LDO (% Animals)” value was found to be 20% and the “Hair Growth in 50% of Animals” value is more than 35 days.

As for `Cc1cc(-n2ncc(=O)[nH]c2=O)cc(C)c1Oc1ccc(O)c(Cc2ccc(F)cc2)c1` [Cpd #4, 2-{4-[3-(4-Fluoro-benzyl)-4-hydroxy-phenoxy]-3,5-dimethyl-phenyl}-2H-[1,2,4]triazine-3,5-dione], in the assay on C3H/HeN mice (setting [10]), the “Hair Growth at LDO (% Animals)” value was 100% and the “Hair Growth in 50% of Animals” value turned out to be 9 days.

For the compound `O=C(c1ccc(F)cc1)c1cc(Oc2c(Cl)cc(-n3ncc(=O)[nH]c3=O)cc2Cl)ccc1O` [Cpd #5, 2-{3,5-Dichloro-4-[3-(4-fluoro-benzoyl)-4-hydroxy-phenoxy]-phenyl}-2H-[1,2,4]triazine-3,5-dione], in the assay with C3H/HeN mice (setting [10]), the “Hair Growth at LDO (% Animals)” value is listed as 100% and the “Hair Growth in 50% of Animals” value is 9 days.

On to `N[C@@H](Cc1cc(I)c(Oc2ccc(O)c(I)c2)c(I)c1)C(=O)O` [T3, 3,5,3′-triiodo-L-thyronine], for which, in the assay on AGA mouse, the “effect on testosterone induced alopecia” value was “inhibitory effect”. Also, the “effect on epidermal proliferation, dermal thickening and hair growth” value with mice and rats is “stimulates epidermal proloferation, dermal thickening and hair growth”.

The values are drawn from US20030007941A1, “Method of treating hair loss using thyromimetic compounds” (priority 2001, published 2003).
